Test results taken from patent US5519163A, “Inhibitors of phosphoinositide-specific phospholipase C” (Merck & Co., Inc., priority 1993, dated 1996).

What follows are compounds tested on PLCβ (assay: Inhibition of PLCβ purified from bovine brain (assay mixture as in Example 12)). Conditions: PLCβ from bovine brain substituted for PLCγ; Tables 3 and 4.
Format: biochemical
Description: Assay of purified PLCγ1 activitiy. Activity of the purified PLCγ1 was assayed at 30° C. Reactions were never allowed to proceed to more than 10% completion based on the limiting substrate. A typical reaction contained the following: 50 mM HEPES pH7.5, 0.1% Deoxycholate, 3 mM CaCl2, 1 mM EGTA, 0.1 mM DTT with phosphatidyl inositol (1-1000 μM) (PI) and 0.02 uCi [^3 H]-phosphatidyl inositol (PI) as substrate. The phospholipid components were dried under a gentle stream of nitrogen and resuspended in assay buffer. The substrate mix is then vortexed and sonicated (10 sec. with probe sonicator) to disperse the lipid and form micelles. After thermally preequilibrating the assay mixture in the absence of enzyme, the reaction was initiated by adding PLCγ1. Reactions containing 0.2 ml aliquots were terminated by addition of 1/4 volume 1N HCl, 5 mM EGTA and transferred to an ice bath. The quenched reactions are then filtered through a Q sepharose (Pharmacia) column. To prepare the Q sepharose column 1 ml of Q Sepharose slurry is added to a disposable plastic column. The resin is equilibrated by passing through 20 ml of 10 mM NH4 H2 PO4, pH 3.5. The quenched reaction, typically 200 μl, is applied to the column and 3 ml of 10 mM NH4 H2 PO4, pH 3.5 is added, the flow through from this step is collected in a scintillation vial, mixed with 10 ml of scintillation fluid and counted in a Beckman LS3801 scintillation counter.
PLC-β are obtained as described by S. G. Rhee et al., Meth. Enzym., 197:502-511 (1991). Specifically PLC-δ is purified from the cytosolic fraction of bovine brains, while PLC-β is mainly obtained from the particulate fraction. However, since the particulate and cytosolic forms of PLC-β are identical with respect to amino acid sequence, PLC-β-containing fractions pooled during the purification of the cytosolic PLC-δ are combined with the PLC-β fraction from the particulate fraction. A total of 36 bovine brains are used for the purification. Twelve brains are processed at one time.
Step 8: Ion-Exchange Chromatography of PLC-β on DEAE-Cellulose. Because of turbidity, the combined protein solution from Steps 2 and 3 cannot be chromatographed on a DEAE-cellulose column directly. Therefore, two stages of DEAE-cellulose chromatography, a batch procedure followed by a column step, are employed. In the batch step, all of the combined proteins are absorbed on 2 liters of DEAE-cellulose equilibrated with 20 mM Tris-HCl, pH 7.6, containing 5 mM EGTA and 0.1 mM DTT. The DEAE-cellulose slurry is stirred and then collected in a 4-liter sintered glass (coarse) filter funnel. The DEAE-cellulose is washed with the equilibration buffer until it is free of turbid lipid materials and unbound protein. For the column procedure, the washed DEAE-cellulose is removed from the filter funnel, mixed with the equilibration buffer, and poured onto a column already containing a 10 cm high bed of equilibrated DEAE-cellulose (final dimension, 8×45 cm). The column is eluted at a flow rate of 8 ml/min with an 8-liter linear gradient from 0 to 300 mM KCl buffer containing 50 mM Tris-HCl, pH 7.6, 1 mM EGTA, and 0.1 mM DTT. The activity peak is eluted at a KCl concentration of 110 mM. The peak fractions (600 ml) are pooled.
Step 9: Heparin-Agarose Chromatography of PLC-β. The pooled fraction from Step 8 (600 ml) is applied to a heparin-agarose column (5×25 cm) equilibrated with 20 mM HEPES, pH 7.0, 100 mM NaCl, 0.1 mM DTT, and 1 mM EGTA. The column is eluted with a linear gradient from 100 to 500 mM NaCl in 1.5 liters of equilibrium buffer. Peak fractions (310 ml) are pooled and concentrated on an Amicon filter to 27 ml.
Step 10: Reversed-Phase Chromatography of PLC-β on TSK Phenyl-5-PW. Solid KCl is added to the concentrated fractions from Step 9 to give a concentration of 3M, and the mixtures are centrifuged to remove denatured proteins. […]

| Structure (SMILES) | IC50 |
| --- | --- |
| O=P(O)(O)C(O)c1cccc(Oc2cccc(Cl)c2)c1 (stereo not shown) [Example 1, 1-Hydroxy-1-(3-(3-chlorophenoxy)phenyl)methylphosphonic acid] | 24 µM |
| O=P(O)(O)C(O)c1ccc(Oc2cccc(Cl)c2)cc1 (stereo not shown) [Example 9, 1-Hydroxy-1-(4-(3-chlorophenoxy)phenyl)methylphosphonic acid] | 9 µM |
| COc1ccc(Oc2cccc(C(O)P(=O)(O)O)c2)cc1 (stereo not shown) [Example 6, 1-Hydroxy-1-(3-(4-methoxyphenoxy)phenyl)methylphosphonic acid] | 717 µM |
| O=P(O)(O)C(O)c1cccc(Oc2ccccc2)c1 (stereo not shown) [Example 2, 1-Hydroxy-1-(3-phenoxyphenyl)methylphosphonic acid] | > 300 µM |
| O=P(O)(O)C(O)c1cccc(Oc2ccccc2Cl)c1 (stereo not shown) [Example 5, 1-Hydroxy-1-(3-(2-chlorophenoxy)phenyl)methylphosphonic acid] | 38 µM |
| O=P(O)(O)C(O)c1ccc(Oc2ccccc2)cc1 (stereo not shown) [reference compound] | > 300 µM |
| O=P(O)(O)C(O)c1cccc(Oc2ccc(Cl)cc2)c1 (stereo not shown) [Example 4, 1-Hydroxy-1-(3-(4-chlorophenoxy)phenyl)methylphosphonic acid] | 65 µM |
| O=P(O)(O)C(O)c1cccc(Oc2ccc(Cl)c(Cl)c2)c1 (stereo not shown) [Example 3, 1-Hydroxy-1-(3-(3,4-dichlorophenoxy)phenyl)methylphosphonic acid] | 110 µM |
| Cc1ccc(Oc2cccc(C(O)P(=O)(O)O)c2)cc1 (stereo not shown) [Example 7, 1-Hydroxy-1-(3-(4-methylphenoxy)phenyl)methylphosphonic acid] | 31 µM |
| O=P(O)(O)C(O)c1cccc(Oc2ccc(O)cc2)c1 (stereo not shown) [Example 8, 1-Hydroxy-1-(3-(4-hydroxyphenoxy)phenyl)methylphosphonic acid] | 7 µM |
| COc1cccc(Oc2ccc(C(O)P(=O)(O)O)cc2)c1 (stereo not shown) [Example 11, 1-Hydroxy-1-(4-(3-methoxyphenoxy)phenyl)methylphosphonic acid] | 11 µM |
| CCc1cccc(Oc2ccc(C(O)P(=O)(O)O)cc2)c1 (stereo not shown) [Example 10, 1-Hydroxy-1-(4-(3-ethylphenoxy)phenyl)methylphosphonic acid] | 74 µM |

Each compound was assayed against T1, PLCγ1 (Rattus norvegicus, UniProt P10686) (assay: Inhibition of purified recombinant PLCγ1 ([3H]-phosphatidyl inositol hydrolysis)). Conditions: PLCγ1, 30° C., phosphatidyl inositol substrate; Tables 1 and 2.
T1 construct: made in house; host or cells: E. coli BL21 (DE3), plasmid pT5T-PLC4 (ATCC 69421)
T1 sequence (P10686 with tags, fused parts or gaps): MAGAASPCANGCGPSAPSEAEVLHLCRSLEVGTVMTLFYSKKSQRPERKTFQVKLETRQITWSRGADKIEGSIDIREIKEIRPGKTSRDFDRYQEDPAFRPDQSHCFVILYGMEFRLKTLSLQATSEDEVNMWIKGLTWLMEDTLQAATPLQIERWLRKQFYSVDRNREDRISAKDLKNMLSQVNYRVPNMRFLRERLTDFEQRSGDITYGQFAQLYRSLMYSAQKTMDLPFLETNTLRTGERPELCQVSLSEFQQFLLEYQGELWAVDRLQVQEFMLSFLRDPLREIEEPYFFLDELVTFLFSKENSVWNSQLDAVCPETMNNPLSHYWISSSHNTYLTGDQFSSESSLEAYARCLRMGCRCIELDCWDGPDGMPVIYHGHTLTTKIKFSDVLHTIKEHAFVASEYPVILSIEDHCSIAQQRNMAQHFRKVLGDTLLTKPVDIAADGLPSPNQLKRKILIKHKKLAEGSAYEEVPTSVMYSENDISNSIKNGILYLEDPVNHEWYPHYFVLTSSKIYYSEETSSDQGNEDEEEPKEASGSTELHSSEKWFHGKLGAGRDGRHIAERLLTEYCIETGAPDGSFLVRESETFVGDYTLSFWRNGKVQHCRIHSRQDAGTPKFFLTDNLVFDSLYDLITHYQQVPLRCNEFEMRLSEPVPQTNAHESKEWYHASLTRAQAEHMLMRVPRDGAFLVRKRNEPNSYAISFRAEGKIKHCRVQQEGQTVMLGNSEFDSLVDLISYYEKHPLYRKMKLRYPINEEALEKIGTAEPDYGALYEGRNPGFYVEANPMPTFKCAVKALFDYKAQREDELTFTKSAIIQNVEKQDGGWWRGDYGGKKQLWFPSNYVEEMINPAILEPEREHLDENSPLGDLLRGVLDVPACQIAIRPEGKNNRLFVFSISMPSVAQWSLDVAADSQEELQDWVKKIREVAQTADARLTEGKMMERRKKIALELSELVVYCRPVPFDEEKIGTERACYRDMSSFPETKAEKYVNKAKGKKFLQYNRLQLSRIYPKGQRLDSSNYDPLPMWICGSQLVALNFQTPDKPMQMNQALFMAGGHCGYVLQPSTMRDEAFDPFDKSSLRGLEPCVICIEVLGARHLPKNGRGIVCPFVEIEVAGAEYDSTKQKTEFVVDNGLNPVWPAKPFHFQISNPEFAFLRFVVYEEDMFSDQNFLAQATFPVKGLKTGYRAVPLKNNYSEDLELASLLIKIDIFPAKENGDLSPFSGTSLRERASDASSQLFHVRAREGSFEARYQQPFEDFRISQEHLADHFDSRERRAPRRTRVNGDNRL
Format: biochemical
Description: Subcloning of the PLCγ Coding Sequence. Rat brain cDNA is synthesized using rat brain poly(A)RNA as template by literature protocol (Sanbrook, J. et al., Molecular Cloning: A Laboratry Manual, Cold Spring Harbor Laboratory Press, Cold Spring Harbor, N.Y.). From the published cDNA sequence of rat brain PLCγ1 (Suh, P.-G., Ryu, S. H., Moon, K. H., Suh, H. W., & Rhee, S. G. (1988) Proc. Natl. Acad. Sci. USA 85, 5419-5423), PCR primers, one which contains a BamHI restriction site upstream of the sequence complementary to the 5' end of the PLCγ1 gene (primer 01), and the other one which contains a HindIII site downsteam of the 3' end of the PLCγ gene (primer 04), were synthesized. Carrying out the PCR using these primers (01 and 04) with the above mentioned rat brain cDNA as template, a DNA fragment with the entire rat brain PLCγ1 coding sequence, flanked by a 5' BamHI site and a 3' HindIII site, is generated. This BamHI-HindIII fragment containing the coding sequence of PLCγ was subcloned into pBSII(S/K)+, generating pPLC1. The rest of the manipulations were accomplished using PCR to generate the appropriate DNA fragment. […]

| Structure (SMILES) | IC50 |
| --- | --- |
| O=P(O)(O)C(O)c1ccc(Oc2ccccc2)cc1 (stereo not shown) [reference compound] | > 300 µM |
